Measurements as given in patent publication US20050176649A1, “Iap binding peptides and assays for identifying compounds that bind iap” (priority 2001, published 2005).
Non-standard residues stand in square brackets, D forms with d. Residues, ends and D or L forms follow the SMILES beside them. ξ: configuration not given here. NMeF = CN[C@@H](Cc1ccccc1)C(=O)O; NMeV = CN[C@H](C(=O)O)C(C)C; ξAbu = CCC(N)C(=O)O

Legend:
BIR3 domain of XIAP = biological target: T1, BIR3 domain of XIAP (Homo sapiens, UniProt P98170); test: Fluorescence displacement assay: AVPC-badan displaced from BIR3 by test tetrapeptide (typical assay, Tables 1 and 2); format: binding, mammalian; conditions: for K: binding (equilibrium) constant for displacement of AVP-dye, position-4 library, 5 μM dye and protein, larger = greater affinity; for Intensity (470 nm): emission intensity of AVPC-badan with BIR3 and test tetrapeptide, excitation 387 nm, lower = more dye displaced; for Fraction free: fraction of AVPC-badan free (displaced from BIR3), from intensity at 470 nm; for Krelative: relative equilibrium constant for displacement of AVP-dye, larger = greater affinity for BIR3
T1 construct: Recombinant XIAP-BIR3 (residues 238-358); GST (N, cleaved yes); made in house; host or cells: E. coli
T1 sequence (P98170 238-358): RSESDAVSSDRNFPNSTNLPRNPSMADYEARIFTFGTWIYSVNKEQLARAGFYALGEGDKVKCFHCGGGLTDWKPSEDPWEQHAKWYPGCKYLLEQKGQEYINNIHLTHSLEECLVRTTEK
Source text: The ability to quickly assay small molecules for their effectiveness in disrupting protein-protein interactions is critical to the development of viable drug candidates. One aspect of the present invention comprises an assay to test the binding affinity of a library of tetrapeptide molecules for the BIR3 domain of an inhibitor of apoptosis protein (LAP), particularly the mammalian XIAP. The assay is based on a detectable label, preferably a fluorogenic dye molecule. In preferred embodiments, the fluorophore is attached to a tripeptide, AVP, whose sequence matches the N-terminal three residues of Smac. The general structure of this molecule, therefore, is AVP[X], wherein X is the fluorophore. The molecule is referred to herein as an “AVP-dye”. The AVP-dye packs into the groove of the BIR3, causing a large shift in emission maximum and intensity when the environment of the dye changes from water to the hydrophobic pocket of the protein. If a molecule (e.g. the native Smac protein or a tetrapeptide mimic) displaces the dye, then emission will shift back to the spectrum observed in water. Since the emission intensity is related to the binding of the tetrapeptide, the intensity can be used to estimate the equilibrium constant, K, for displacement of the AVP-dye by the tetrapeptide. The larger the equilibrium constant, the greater affinity the tetrapeptide has for the BIR3.
The aforementioned AVP-dye is used in an assay of test compounds that may, like the Smac tetrapeptide AVPI, bind to the BIR3 domain of XIAP, thereby relieving XIAP-mediated suppression of apoptosis. This is a high-throughput, cell-free assay, that is assembled as follows. A protein comprising the BIR3 domain of an IAP is placed in an assay medium comprising a suitable buffer, as described above. Preferably, this is a recombinant protein comprising the BIR3 domain, but a full IAP protein also may be used. An aliquot of the AVP-dye is added to the reaction mixture, in the presence of the test compound. Controls comprise the BIR3 and the dye in the absence of the test compound and, optionally, BIR3 and the dye in the presence of the naturally occurring tetrapeptide, AVPI. […] Alternatively, a emission spectrum is measured at the selected excitation wavelength. In one type of measurement, the test compound is added and an emission spectrum is measured by scanning from, e.g., 460-480 nm. In another type of measurement, the emission intensity at a particular wavelength, e.g., 470 nm, is measured. […] Thus, the binding affinity of the test compound may be calculated as a function of its ability to displace the dye from the BIR3 domain, according to the following calculation: [formula]
Stock solution of badan, BIR3, and buffer were mixed: 2.5 ml of badan, 1.75 ml BIR3, and 15.25 ml of buffer were mixed in a glass vial which had been chilled to 4° C. Added 390 μL of the stock solution to 50 wells in the pre-chilled 96 well plate (wells A1-E2).
Stock solution of badan and buffer were mixed: 150 μL badan and 1020 μL of buffer were mixed in a small glass vial (also chilled) and added to 3 wells on the plate in 390 μL aliquots (F1-F3).
The 96 well plate was stored over ice in an insulated bucket while the emission spectra of the samples were taken. Fifty μL of the appropriate test solution (or water, for the control experiments) was added with a micropipet, the solution mixed with a Pasteur pipet before adding the sample to the fluorescence cuvette. While one sample was being scanned, the cuvette from the previous scan was washed with EtOH and then next sample was prepared.

[1] = biological target: T2, BIR3 domain of XIAP (recombinant XIAP-BIR3, residues 238-358) (Homo sapiens, UniProt P98170); test: Fluorescence-based competition assay of tetrapeptide libraries (Example 1); format: binding, mammalian
T2 construct: Recombinant XIAP-BIR3 (residues 238-358); GST (N, cleaved yes); made in house; host or cells: E. coli
T2 sequence (P98170 238-358): as above
Source text: Expression and Purification of BIR3. […] The soluble fraction of the GST-BIR3 in the E. coli lysate was purified over a glutathione sepharose column, and further purified by anion exchange chromatography (Mono-Q, Amersham Biosciences). The fusion protein was cleaved by thrombin, and the GST portion was removed by the glutathione sepharose column. The BIR3 protein was further purified over a gel filtration column (Superdex 30, Amersham Biosciences).
Fluorescence Experiments. Luminescence spectra were recorded using a Photon Technologies, Inc. fluorometer with a Xe arc lamp and a PMT detector. […] The buffer used in all of the fluorescence experiments was 50 mM potassium phosphate, 100 mM NaCl, 2 mM 1,4-dithio-DL-threitol (DTT), pH 7.
Assay of Tetrapeptide Libraries. The samples were prepared in a 96 well plate lined with glass tubes, to prevent adsorption of the dye to plastic. The plate was stored on ice in the dark between measurements. […] 390 μL of this stock solution were added to 50 wells of the 96 well plate. 50 μL of the test tetrapeptide solutions were added and mixed immediately prior to taking the emission spectra. The final solutions were 5 μM in both badan and BIR3, and approximately 20-30 μM in the tetrapeptide solutions. […] 50 μL of water was added to these wells, again as controls, to determine the intensity of the unbound dye.
The binding of various tetrapeptide mimics to the BIR3 domain of XIAP was determined using a fluorescence-based competition assay. The assay is based on an environment-sensitive fluorogenic dye molecule, badan. Badan is a dye whose sensitivity to environmental changes has previously been used to probe protein binding interactions. […] As the dye is displaced from the binding pocket by the test molecule, the emission shifts back towards the aquated spectrum.

Kd [1] [µM] | SMILES | also measured
2.1 | CC(C)[C@H](NC(=O)[C@H](C)N)C(=O)N1CCC[C@H]1C(=O)N[C@H](C(N)=O)[C@@H](C)O [AVPT] (H-AVPT-NH2; N-terminus and C-terminus assumed) | K (BIR3 domain of XIAP): 0.143
0.49 | CC(C)C[C@H](NC(=O)[C@@H]1CCCN1C(=O)[C@@H](NC(=O)[C@H](C)N)C(C)C)C(N)=O [AVPL] (H-AVPL-NH2; N-terminus and C-terminus assumed) | K (BIR3 domain of XIAP): 0.3423
5.7 | CC(C)[C@H](NC(=O)[C@H](C)N)C(=O)N1CCC[C@H]1C(=O)N1CCC[C@H]1C(N)=O [AVPP] (H-AVPP-NH2; N-terminus and C-terminus assumed) | K (BIR3 domain of XIAP): 0.01069
0.11 | CC(C)[C@H](NC(=O)[C@H](C)N)C(=O)N1CCC[C@H]1C(=O)N[C@@H](Cc1c[nH]c2ccccc12)C(N)=O [AVPW] (H-AVPW-NH2; N-terminus and C-terminus assumed) | K (BIR3 domain of XIAP): 1.0817; Intensity (470 nm) (BIR3 domain of XIAP): 23435; Fraction free (BIR3 domain of XIAP): 0.9418
27 | CC[C@H](C)[C@H](NC(=O)[C@@H]1CCCN1C(=O)[C@@H](NC(=O)[C@@H](N)CO)C(C)C)C(N)=O [SVPI] | –
1.4 | CC[C@H](C)[C@H](NC(=O)[C@@H]1CCCN1C(=O)[C@H](CO)NC(=O)[C@H](C)N)C(N)=O [ASPI] (H-ASPI-NH2; N-terminus and C-terminus assumed) | –
0.89 | CC(C)[C@H](NC(=O)[C@H](C)N)C(=O)N1CCC[C@H]1C(=O)N(C)[C@@H](Cc1ccccc1)C(N)=O [AVP(N-Me)F] (H-AVP[NMeF]-NH2; N-terminus and C-terminus assumed) | –
0.56 | CC(C)[C@H](NC(=O)[C@H](C)N)C(=O)N[C@@H](C)C(=O)N[C@@H](Cc1ccccc1)C(N)=O [AVAF] | –
9 | CC[C@H](C)[C@H](NC(=O)[C@@H]1CCCN1C(=O)[C@@H](NC(=O)CN)C(C)C)C(N)=O [GVPI] (H-GVPI-NH2; N-terminus and C-terminus assumed) | –
> 100 | CC(C)[C@H](NC(=O)[C@H](C)N)C(=O)N1CCC[C@H]1C(=O)N[C@@H](CCC(N)=O)C(N)=O [AVPQ] (H-AVPQ-NH2) | –
0.99 | CC[C@H](C)[C@H](NC(=O)[C@@H]1CCCN1C(=O)[C@H](Cc1c[nH]c2ccccc12)NC(=O)[C@H](C)N)C(N)=O [AWPI] (H-AWPI-NH2; N-terminus and C-terminus assumed) | –
> 100 | CC(C)[C@H](NC(=O)[C@H](C)N)C(=O)N1CCC[C@H]1C(=O)N[C@@H](CC(N)=O)C(N)=O [AVPN] (H-AVPN-NH2) | –
174 | CC[C@H](C)[C@@H](C(N)=O)N(C)C(=O)[C@@H]1CCCN1C(=O)[C@@H](NC(=O)[C@H](C)N)C(C)C [AVP(N-Me)I] | –
1.2 | CC[C@H](C)[C@H](NC(=O)[C@@H]1CCCN1C(=O)[C@@H](NC(=O)[C@H](C)N)[C@@H](C)O)C(N)=O [ATPI] (H-ATPI-NH2; N-terminus and C-terminus assumed) | –
190 | CC[C@H](C)[C@@H](C(N)=O)N(C)C(=O)[C@@H]1CCCN1C(=O)[C@H](CCCNC(=N)N)NC(=O)[C@H](C)N [ARP(N-Me)I] | –

The next lines start with the compound.

SMILES | Kd [1] [µM] | also measured
CC[C@H](C)[C@H](NC(=O)[C@@H]1CCCN1C(=O)[C@H](Cc1c[nH]cn1)NC(=O)[C@H](C)N)C(N)=O [AHPI] (H-AHPI-NH2; N-terminus and C-terminus assumed) | 0.33 | Intensity (470 nm) (BIR3 domain of XIAP): 41450; Fraction free (BIR3 domain of XIAP): 0.8543
CC(C)[C@@H](C(=O)N1CCC[C@H]1C(=O)N[C@@H](Cc1ccccc1)C(N)=O)N(C)C(=O)[C@H](C)N [A(N-Me)VPF] | 83 | –
CC[C@H](C)[C@H](NC(=O)[C@@H]1CCCN1C(=O)CNC(=O)[C@H](C)N)C(N)=O [AGPI] (H-AGPI-NH2; N-terminus and C-terminus assumed) | 46 | –
CC(C)[C@@H](C(=O)N1CCC[C@H]1C(=O)N(C)[C@@H](Cc1ccccc1)C(N)=O)N(C)C(=O)[C@H](C)N [A(N-Me)VP(N-Me)F] (H-A[NMeV]P[NMeF]-NH2; N-terminus and C-terminus assumed) | 91 | –
CC[C@H](C)[C@H](NC(=O)[C@@H]1CCCN1C(=O)[C@H](C(C)C)N(C)C(=O)[C@H](C)N)C(N)=O [A(N-Me)VPI] | 257 | –
CC[C@H](C)[C@H](NC(=O)[C@@H]1CCCN1C(=O)[C@H](CC(C)C)NC(=O)[C@H](C)N)C(N)=O [ALPI] (H-ALPI-NH2; N-terminus and C-terminus assumed) | – | Intensity (470 nm) (BIR3 domain of XIAP): 38650; Fraction free (BIR3 domain of XIAP): 0.8679; Krelative (BIR3 domain of XIAP): 3.5812
CC[C@H](C)[C@H](NC(=O)[C@@H]1CCCN1C(=O)[C@H](CC(=O)O)NC(=O)[C@H](C)N)C(N)=O [ADPI] (H-ADPI-NH2; N-terminus and C-terminus assumed) | 17 | –
CC[C@H](C)[C@H](NC(=O)[C@@H]1CCCN1C(=O)[C@H](CCC(=O)O)NC(=O)[C@H](C)N)C(N)=O [AEPI] (H-AEPI-NH2; N-terminus and C-terminus assumed) | 2.7 | –
CC[C@H](C)[C@H](NC(=O)[C@@H]1CCCN1C(=O)[C@@H](NC(=O)[C@H](C)N)[C@@H](C)CC)C(N)=O [AIPI] (H-AIPI-NH2; N-terminus and C-terminus assumed) | – | Intensity (470 nm) (BIR3 domain of XIAP): 44902; Fraction free (BIR3 domain of XIAP): 0.8375; Krelative (BIR3 domain of XIAP): 2.6613
C[C@H](N)C(=O)N[C@@H](CCCNC(=N)N)C(=O)N1CCC[C@H]1C(=O)N(C)[C@@H](Cc1ccccc1)C(N)=O [ARP(N-Me)F] (H-ARP[NMeF]-NH2; N-terminus and C-terminus assumed) | 0.71 | –
CCC(N)C(=O)N[C@H](C(=O)N1CCC[C@H]1C(=O)N[C@H](C(N)=O)[C@@H](C)CC)C(C)C (stereo partly drawn) [AbuVPI] (H-[ξAbu]VPI-NH2; N-terminus and C-terminus assumed) | – | Intensity (470 nm) (BIR3 domain of XIAP): 34770; Fraction free (BIR3 domain of XIAP): 0.8867
CC[C@H](C)[C@H](NC(=O)[C@@H]1CCCN1C(=O)[C@@H]1CCCN1C(=O)[C@H](C)N)C(N)=O [APPI] (H-APPI-NH2) | > 100 | –
CC[C@H](C)[C@H](NC(=O)[C@@H]1CCCN1C(=O)[C@H](C)NC(=O)[C@H](C)N)C(N)=O [AAPI] (H-AAPI-NH2; N-terminus and C-terminus assumed) | 2.8 | –
CC[C@H](C)[C@H](NC(=O)[C@@H]1CCCN1C(=O)[C@H](CC(N)=O)NC(=O)[C@H](C)N)C(N)=O [ANPI] (H-ANPI-NH2; N-terminus and C-terminus assumed) | 1.5 | –
